The source made the active and inactive calls. The calls are words filed in the database; no cut-off is given here.
Legend:
NCI-H460 = assay: Cytotoxicity against human NCI-H460 cells assessed as reduction in cell viability incubated for 48 hrs by MTT assay; assay type: functional, cell-based; details: NCI-H460, 48 h
A549 [1] = assay: Cytotoxicity against human A549 cells assessed as reduction in cell viability incubated for 48 hrs by MTT assay; assay type: functional, cell-based; details: A549, 48 h
A549 [2] = assay: Induction of apoptosis in human A549 cells assessed as increase in cleaved caspase-9 expression level at 3 to 10 uM incubated for 48 hrs by western blot analysis; assay type: functional, cell-based; details: dose 3-10 µM
A549 [3] = assay: Induction of apoptosis in human A549 cells assessed as late apoptotic cells at 10 uM incubated for 48 hrs by AnnexinV-FITC/PI staining based flow cytometry (reference value: 1.58 to 2.23%); assay type: functional
A549 [4] = assay: Induction of apoptosis in human A549 cells assessed as increase in cleaved caspase-3 expression level at 3 to 10 uM incubated for 48 hrs by western blot analysis; assay type: functional, cell-based; details: dose 3-10 µM
A549 [5] = assay: Induction of apoptosis in human A549 cells assessed as necrotic cells at 3 uM incubated for 48 hrs by AnnexinV-FITC/PI staining based flow cytometry (reference value: 2.23 to 4.25%); assay type: functional
A549 [6] = assay: Induction of apoptosis in human A549 cells assessed as necrotic cells at 10 uM incubated for 48 hrs by AnnexinV-FITC/PI staining based flow cytometry (reference value: 2.23 to 4.25%); assay type: functional
[7] = Cytotoxicity against rat Primary hepatocytes assessed as cell viability at 25 uM incubated for 12 hrs; assay type: toxicity, cell-based, Hepatocyte; details: read-out: Activity
A549 [8] = assay: Induction of apoptosis in human A549 cells assessed as viable cells at 10 uM incubated for 48 hrs by AnnexinV-FITC/PI staining based flow cytometry (reference value: 91.5 to 92.9%); assay type: functional; details: read-out: Activity
A549 [9] = assay: Induction of apoptosis in human A549 cells assessed as early apoptotic cells at 10 uM incubated for 48 hrs by AnnexinV-FITC/PI staining based flow cytometry (reference value: 2.07 to 3.24%); assay type: functional
A549 [10] = assay: Induction of apoptosis in human A549 cells assessed as late apoptotic cells at 3 uM incubated for 48 hrs by AnnexinV-FITC/PI staining based flow cytometry (reference value: 1.58 to 2.23%); assay type: functional
A549 [11] = assay: Induction of apoptosis in human A549 cells assessed as early apoptotic cells at 3 uM incubated for 48 hrs by AnnexinV-FITC/PI staining based flow cytometry (reference value: 2.07 to 3.24%); assay type: functional
A549 [12] = assay: Induction of intracellular ROS generation in human A549 cells incubated for 48 hrs by H2DCF-DA staining based flow cytometry; assay type: functional, cell-based; details: dose 3-10 µM, DDE = dose-dependent effect
A549 [13] = assay: Induction of cell cycle arrest in human A549 cells assessed as accumulation of cells at G2/M phase incubated for 48 hrs by PI staining based flow cytometry (reference value: 9.7 to 17.2%); assay type: functional
A549 [14] = assay: Induction of apoptosis in human A549 cells assessed as decrease in mitochondrial membrane potential by measuring reduction in ratio of red to green fluorescence intensity at 3 to 10 uM incubated for 48 hrs by JC-1 staining based flow cytometry; assay type: functional, cell-based; details: dose 3-10 µM
A549 [15] = assay: Induction of apoptosis in human A549 cells assessed as viable cells at 3 uM incubated for 48 hrs by AnnexinV-FITC/PI staining based flow cytometry (reference value: 91.5 to 92.9%); assay type: functional; details: read-out: Activity

Row | SMILES | IC50 (NCI-H460) | IC50 (A549 [1]) | other results
1 | C=C1C(=O)O[C@H]2CC3=C[C@H](C/C(C)=C/[C@@H](OC(=O)c4ccc(C(=O)O[C@@H]5/C=C(\C)C[C@H]6C=C(C[C@@H]7OC(=O)C(=C)[C@H]75)C(=O)O6)s4)[C@H]12)OC3=O | 5.8 µM | 3.6 µM | –
2 | C=C1C(=O)O[C@H]2CC3=C[C@H](C/C(C)=C/[C@@H](OC(=O)CCCCCCC(=O)O[C@@H]4/C=C(\C)C[C@H]5C=C(C[C@@H]6OC(=O)C(=C)[C@H]64)C(=O)O5)[C@H]12)OC3=O | 3.2 µM | 0.7 µM | Activity (A549 [2]): Active; Activity (A549 [3]): 44.1%; Activity (A549 [4]): Active; Activity (A549 [5]): 0.14%; Activity (A549 [6]): 10.4%; viability at 12 h, 25 µM [7]: 59.2%; viability at 10 µM (A549 [8]): 14.6%; Activity (A549 [9]): 30.9%; Activity (A549 [10]): 0.7%; Activity (A549 [11]): 35.5%; Activity (A549 [12]): Dde; Activity (A549 [13]): 62.4%; Activity (A549 [14]): Active; viability at 3 µM (A549 [15]): 63.7%
3 | C=C1C(=O)O[C@H]2CC3=C[C@H](C/C(C)=C/[C@@H](OC(=O)CC4CCCCC4)[C@H]12)OC3=O | 2 µM | 6.9 µM | –
4 | C=C1C(=O)O[C@H]2CC3=C[C@H](C/C(C)=C/[C@@H](OC(=O)/C=C/c4cccs4)[C@H]12)OC3=O | 2.9 µM | 4.3 µM | Activity (A549 [2]): Active; Activity (A549 [3]): 23.9%; Activity (A549 [4]): Active; Activity (A549 [5]): 0.53%; Activity (A549 [6]): 10.6%; viability at 12 h, 25 µM [7]: 96.7%; viability at 10 µM (A549 [8]): 38.2%; Activity (A549 [9]): 27.3%; Activity (A549 [10]): 1.45%; Activity (A549 [11]): 14.8%; Activity (A549 [12]): Dde; Activity (A549 [13]): 32.6%; Activity (A549 [14]): Active; viability at 3 µM (A549 [15]): 83.2%
5 | C=C1C(=O)O[C@H]2CC3=C[C@H](C/C(C)=C/[C@@H](OC(=O)c4ccc(C(F)(F)F)cc4)[C@H]12)OC3=O | > 10 µM | > 10 µM | –
6 | C=C1C(=O)O[C@H]2CC3=C[C@H](C/C(C)=C/[C@@H](OC(=O)c4ccc(-c5ccccc5)cc4)[C@H]12)OC3=O | 3.5 µM | 4.6 µM | –
7 | C=C1C(=O)O[C@H]2CC3=C[C@H](C/C(C)=C/[C@@H](OC(=O)/C=C/c4ccc(C(F)(F)F)cc4)[C@H]12)OC3=O | 1.4 µM | 5.9 µM | –
8 | C=C1C(=O)O[C@H]2CC3=C[C@H](C/C(C)=C/[C@@H](OC(=O)/C=C\c4ccc5c(c4)OCO5)[C@H]12)OC3=O | > 10 µM | 6.1 µM | –
9 | C=C1C(=O)O[C@H]2CC3=C[C@H](C/C(C)=C/[C@@H](OC(=O)CCCCC(=O)O[C@@H]4/C=C(\C)C[C@H]5C=C(C[C@@H]6OC(=O)C(=C)[C@H]64)C(=O)O5)[C@H]12)OC3=O | 8.1 µM | 2.1 µM | –
10 | C=C1C(=O)O[C@H]2CC3=C[C@H](C/C(C)=C/[C@@H](OC(=O)/C=C/c4ccccc4)[C@H]12)OC3=O | > 10 µM | 4.8 µM | –
11 | C=C1C(=O)O[C@H]2CC3=C[C@H](C/C(C)=C/[C@@H](OC(=O)CCC(=O)O[C@@H]4/C=C(\C)C[C@H]5C=C(C[C@@H]6OC(=O)C(=C)[C@H]64)C(=O)O5)[C@H]12)OC3=O | > 10 µM | > 10 µM | –
12 | C=C1C(=O)O[C@H]2CC3=C[C@H](C/C(C)=C/[C@@H](OC(=O)C(C)(C)CC)[C@H]12)OC3=O | 6.1 µM | 2.2 µM | –
13 | C=C1C(=O)O[C@H]2CC3=C[C@H](C/C(C)=C/[C@@H](OC(=O)c4ccc([N+](=O)[O-])cc4)[C@H]12)OC3=O | > 10 µM | > 10 µM | –
14 | C=C1C(=O)O[C@@H]2/C=C(\C)C[C@H]3C=C(C[C@H](OC(=O)/C(C)=C\C)[C@@H]12)C(=O)O3 | > 10 µM | > 10 µM | –
15 | C=C1C(=O)O[C@H]2CC3=C[C@H](C/C(C)=C/[C@@H](OC(=O)C4(NC(=O)OCc5ccccc5)CC4)[C@H]12)OC3=O | 3 µM | 5.8 µM | –
16 | C=C1C(=O)O[C@H]2CC3=C[C@H](C/C(C)=C/[C@@H](OC(=O)C4CC4)[C@H]12)OC3=O | 3 µM | 3.2 µM | –
17 | C=C1C(=O)O[C@H]2CC3=C[C@H](C/C(C)=C/[C@@H](OC(=O)/C=C/c4ccc(N(C)C)cc4)[C@H]12)OC3=O | 1.3 µM | > 10 µM | –

Row | SMILES | IC50 (NCI-H460) | IC50 (A549 [1]) | other results
18 | C=C1C(=O)O[C@@H]2C3O[C@]3(C)CC/C=C(\C)CC[C@@H]12 (stereo partly specified) | 9.6 µM | > 10 µM | –
19 | C=C1C(=O)O[C@H]2CC3=C[C@H](C/C(C)=C/[C@@H](OC(=O)CCl)[C@H]12)OC3=O | > 10 µM | > 10 µM | –
20 | C=C1C(=O)O[C@H]2CC3=C[C@H](C/C(C)=C/[C@@H](OC(=O)CC(C)C)[C@H]12)OC3=O | 3.8 µM | 2.5 µM | –
21 | C=C1C(=O)O[C@H]2CC3=C[C@H](C/C(C)=C/[C@@H](OC(=O)/C=C/c4cccc(OC)c4)[C@H]12)OC3=O | > 10 µM | 6.2 µM | –
22 | C=C1C(=O)O[C@H]2CC3=C[C@H](C/C(C)=C/[C@@H](OC(=O)CCCCC)[C@H]12)OC3=O | 5.9 µM | > 10 µM | –
23 | C=C1C(=O)O[C@H]2CC3=C[C@H](C/C(C)=C/[C@@H](OC(=O)CCCC(=O)O[C@@H]4/C=C(\C)C[C@H]5C=C(C[C@@H]6OC(=O)C(=C)[C@H]64)C(=O)O5)[C@H]12)OC3=O | > 10 µM | 5.6 µM | –
24 | C=C1C(=O)O[C@H]2CC3=C[C@H](C/C(C)=C/[C@@H](OC(=O)C45CCC(C)(C(=O)O4)C5(C)C)[C@H]12)OC3=O | 2 µM | 3.4 µM | –
25 | C=C1C(=O)O[C@H]2CC3=C[C@H](C/C(C)=C/[C@@H](OC(=O)/C=C/c4ccncc4)[C@H]12)OC3=O | 2.1 µM | 4 µM | –
26 | C=C1C(=O)O[C@H]2CC3=C[C@H](C/C(C)=C/[C@@H](OC(=O)c4ccc(C(C)=O)cc4)[C@H]12)OC3=O | 2.2 µM | 2.3 µM | –
27 | C=C1C(=O)O[C@H]2CC3=C[C@H](C/C(C)=C/[C@@H](OC(=O)CCCCBr)[C@H]12)OC3=O | > 10 µM | > 10 µM | –
28 | C=C1C(=O)O[C@H]2CC3=C[C@H](C/C(C)=C/[C@@H](O)[C@H]12)OC3=O | > 10 µM | > 10 µM | –
29 | C=C1C(=O)O[C@H]2CC3=C[C@H](C/C(C)=C/[C@@H](OC(=O)C4CCC(F)(F)CC4)[C@H]12)OC3=O | > 10 µM | 6.4 µM | –
30 | C=C1C(=O)O[C@H]2CC3=C[C@H](C/C(C)=C/[C@@H](OC(=O)c4ccncc4)[C@H]12)OC3=O | 5.6 µM | > 10 µM | –
31 | C=C1C(=O)O[C@H]2CC3=C[C@H](C/C(C)=C/[C@@H](OC(=O)/C=C/c4ccc5c(c4)OCO5)[C@H]12)OC3=O | 9.3 µM | 4.6 µM | –
32 | C=C1C(=O)O[C@H]2CC3=C[C@H](C/C(C)=C/[C@@H](OC(=O)CCSSCCC(=O)O[C@@H]4/C=C(\C)C[C@H]5C=C(C[C@@H]6OC(=O)C(=C)[C@H]64)C(=O)O5)[C@H]12)OC3=O | 7.8 µM | 3.1 µM | –
33 | C=C1C(=O)O[C@H]2CC3=C[C@H](C/C(C)=C/[C@@H](OC(=O)c4ccc(C(=O)O[C@@H]5/C=C(\C)C[C@H]6C=C(C[C@@H]7OC(=O)C(=C)[C@H]75)C(=O)O6)cc4)[C@H]12)OC3=O | 0.7 µM | 1.5 µM | –
34 | CO[C@H]1C(=O)O[C@H]2CC3=C[C@H](C/C(C)=C/[C@@H](O)[C@@H]21)OC3=O | > 10 µM | > 10 µM | –
